From US20220387604A1, “SELECTIVE DUAL HISTONE DEACETYLASE 6/8 (HDAC6/8) DEGRADERS AND METHODS OF USE THEREOF” (DANA-FARBER CANCER INSTITUTE, INC., priority 2019, published 2022)

Key:
CRBN = target: T1, CRBN (Homo sapiens, UniProt Q96SW2); assay: Cellular CRBN engagement assay (competition with dBET6, BRD4BD2-eGFP reporter, Flip-In 293 cells); format: cell-based; conditions: titrated in the presence of 100 nM dBET6, 5 h, Flip-In 293 cells expressing BRD4BD2-eGFP/mCherry
T1 construct: endogenous in cells; host or cells: Flip-In 293 cells stably expressing BRD4BD2-eGFP-P2A-mCherry
Method: BRD4BD2 was subcloned into mammalian pcDNA5/FRT Vector (Ampicillin and Hygromycin B resistant) modified to contain MCS-eGFP-P2A-mCherry. Stable cell lines expressing eGFP-protein fusion and mCherry reporter were generated using Flip-In 293 system. Plasmid (0.3 μg) and pOG44 (4.7 μg) DNA were preincubated in 100 μL of Opti-MEM I (Gibco, Life Technologies™) media containing 0.05 mg/ml Lipofectamine 2000 (Invitrogen™) for 20 min and added to Flip-In 293 cells containing 1.9 ml of DMEM media (Gibco, Life Technologies™) per well in a 6-well plate format (Falcon, 353046). Cells were propagated after 48 h and transferred into a […] (Coming, 430165) in DMEM media containing 50 μg/ml of Hygromycin B (REF 10687010, Invitrogen™) as a selection marker. Following 2-3 passage cycles, FACS (FACSAria II, BD) was used to enrich for cells expressing eGFP and mCherry.
Cells were seeded at 30-50% confluency in either 24, 48 or 96 well plates (3524, 3548, 3596 respectively, Costar) a day before compound treatment. The inventive compounds were titrated in the presence of 100 nM dBET6 and then were incubated with cells for 5 h following trypsinization and resuspension in DMEM media, transferred into 96-well plates (353910, Falcon) and analyzed by flow cytometer (Guava® easyCyte™ HT, Millipore). Signal from at least 3000 events per well was acquired and the eGFP and mCherry florescence monitored. Data was analyzed using FlowJo® (FlowJo®, LCC). Forward and side scatter outliers, frequently associated with cell debris, were removed leaving >90% of total cells, followed by removal of eGFP and mCherry signal outliers, leaving 88-90% of total cells creating the set used for quantification. The eGFP protein abundance relative to mCherry was then quantified as a ten-fold amplified ratio for each individual cell using the formula: 10× eGFP/mCherry. The median of the ratio was then calculated per set, normalized to the median of the DMSO ratio. […]

[1] = test system: other identified HDAC proteins; assay: Quantitative proteomics of cellular protein abundance in Kelly cells: other identified HDAC proteins; format: cell-based, human; conditions: 1 μM, 5 hours, compared to DMSO control
Method: Lysis buffer (8 M Urea, 50 mM NaCl, 50 mM 4-(2hydroxyethyl)-1-piperazineethanesulfonic acid (EPPS) pH 8.5, protease and phosphatase inhibitors from Roche®) were added to the cell pellets and homogenized by 20 passes through a 21 gauge (1.25 in. long) needle to achieve a cell lysate with a protein concentration between 1-4 mg mL^−1. A micro-BCA assay (Pierce™) was used to determine the final protein concentration in the cell lysate. 200 μg of protein for each sample were reduced and alkylated as described in Donovan et al., Elife 7:e38430 (2018).
Proteins were precipitated using methanol/chloroform. Four volumes of methanol were added to the cell lysate, followed by one volume of chloroform, and finally three volumes of water. The mixture was vortexed and centrifuged to separate the chloroform phase from the aqueous phase. The precipitated protein was washed with three volumes of methanol, centrifuged and the resulting washed precipitated protein was allowed to air dry. The precipitated protein was resuspended in 4 M Urea, 50 mM HEPES pH 7.4, followed by dilution to 1 M urea with the addition of 200 mM EPPS, pH 8. Proteins were first digested with LysC (1:50; enzyme:protein) for 12 hours at room temperature. The LysC digestion was diluted to 0.5 M Urea with 200 mM EPPS pH 8 followed by digestion with trypsin (1:50; enzyme:protein) for 6 hours at 37° C. Tandem mass tag (TMT) reagents (Thermo Fisher Scientific) were dissolved in anhydrous acetonitrile (ACN) according to manufacturer's instructions.
Anhydrous ACN was added to each peptide sample to a final concentration of 30% v/v, and labeling was induced with the addition of TMT reagent to each sample at a ratio of 1:4 peptide:TMT label. […] The sample channels were combined at a 1:1:1:1:1:1:1:1:1:1:1 ratio, desalted using C18 solid phase extraction cartridges (Waters®) and analyzed by LC-MS for channel ratio comparison. Samples were then combined using the adjusted volumes determined in the channel ratio analysis and dried down in a speed vacuum. […]

| Compound | IC50 (CRBN) [µM] | change of cellular protein levels of the other identified HDAC proteins (heat map FIG. 3) [1] |
| --- | --- | --- |
| O=C(/C=C/c1ccc(CN(CCCCCNc2cccc3c2C(=O)N(C2CCC(=O)NC2=O)C3=O)CCc2c[nH]c3ccccc23)cc1)NO (stereo not drawn) [Compound 3, (E)-3-(4-(((2-(1H-indol-3-yl)ethyl)(5-((2-(2,6-dioxopiperidin-3-yl)-1,3-dioxoisoindolin-4-yl)amino)pentyl)amino)methyl)phenyl)-N-hydroxyacrylamide] | 10 | did not affect |
| O=C(/C=C/c1ccc(CN(CCOCCOCCNc2cccc3c2C(=O)N(C2CCC(=O)NC2=O)C3=O)CCc2c[nH]c3ccccc23)cc1)NO (stereo not drawn) [Compound 1, (E)-3-(4-(((2-(1H-indol-3-yl)ethyl)(2-(2-(2-((2-(2,6-dioxopiperidin-3-yl)-1,3-dioxoisoindolin-4-yl)amino)ethoxy)ethoxy)ethyl)amino)methyl)phenyl)-N-hydroxyacrylamide] | 11.7 | did not affect |
| O=C(/C=C/c1ccc(CN(CCOCCNc2cccc3c2C(=O)N(C2CCC(=O)NC2=O)C3=O)CCc2c[nH]c3ccccc23)cc1)NO (stereo not drawn) [Compound 2, (E)-3-(4-(((2-(1H-indol-3-yl)ethyl)(2-(2-((2-(2,6-dioxopiperidin-3-yl)-1,3-dioxoisoindolin-4-yl)amino)ethoxy)ethyl)amino)methyl)phenyl)-N-hydroxyacrylamide] | 19.2 | did not affect |
